Laboratory results taken from PubChem BioAssay (NCI).
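Assay format: 96-well plates, 48-hour exposure. At the GI50, growth is halved. TGI: total growth inhibition.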

Columns and labels:
Experiment in all cases: growth of human tumour cells (NCI), 48 h
786-0 renal = test system: 786-0 renal
A498 renal = test system: A498 renal
A549 NSCLC = test system: A549 NSCLC
ACHN renal = test system: ACHN renal
BT-549 breast = test system: BT-549 breast
CAKI-1 renal = test system: CAKI-1 renal
CCRF-CEM leukemia = test system: CCRF-CEM leukemia
COLO 205 colon = test system: COLO 205 colon
DU-145 prostate = test system: DU-145 prostate
HCC-2998 colon = test system: HCC-2998 colon
HCT-116 colon = test system: HCT-116 colon
HCT-15 colon = test system: HCT-15 colon
HL-60(TB) leukemia = test system: HL-60(TB) leukemia
HOP-62 NSCLC = test system: HOP-62 NSCLC
HS 578T breast = test system: HS 578T breast
HT29 colon = test system: HT29 colon
IGROV1 ovarian = test system: IGROV1 ovarian
K-562 leukemia = test system: K-562 leukemia
KM12 colon = test system: KM12 colon
M14 melanoma = test system: M14 melanoma
MALME-3M melanoma = test system: MALME-3M melanoma
MCF7 breast = test system: MCF7 breast
MDA-MB-231 breast = test system: MDA-MB-231 breast
MDA-MB-435 = test system: MDA-MB-435
MOLT-4 leukemia = test system: MOLT-4 leukemia
NCI-H226 lung = test system: NCI-H226 lung
NCI-H23 lung = test system: NCI-H23 lung
NCI-H460 lung = test system: NCI-H460 lung
NCI-H522 lung = test system: NCI-H522 lung
NCI/ADR-RES ovarian = test system: NCI/ADR-RES ovarian
OVCAR-3 ovarian = test system: OVCAR-3 ovarian
OVCAR-4 ovarian = test system: OVCAR-4 ovarian
OVCAR-5 ovarian = test system: OVCAR-5 ovarian
OVCAR-8 ovarian = test system: OVCAR-8 ovarian
PC-3 prostate = test system: PC-3 prostate
RPMI-8226 leukemia = test system: RPMI-8226 leukemia
RXF 393 renal = test system: RXF 393 renal
SF-268 CNS = test system: SF-268 CNS
SF-295 CNS = test system: SF-295 CNS
SF-539 CNS = test system: SF-539 CNS
SK-MEL-28 melanoma = test system: SK-MEL-28 melanoma
SK-MEL-5 melanoma = test system: SK-MEL-5 melanoma
SK-OV-3 ovarian = test system: SK-OV-3 ovarian
SN12C renal = test system: SN12C renal
SNB-19 CNS = test system: SNB-19 CNS
SNB-75 CNS = test system: SNB-75 CNS
SR leukemia = test system: SR leukemia
SW-620 colon = test system: SW-620 colon
T-47D breast = test system: T-47D breast
TK-10 renal = test system: TK-10 renal
UACC-257 melanoma = test system: UACC-257 melanoma
UACC-62 melanoma = test system: UACC-62 melanoma
UO-31 renal = test system: UO-31 renal
EKVX NSCLC = test system: EKVX NSCLC
HOP-92 NSCLC = test system: HOP-92 NSCLC
LOX IMVI melanoma = test system: LOX IMVI melanoma
SK-MEL-2 melanoma = test system: SK-MEL-2 melanoma
U251 CNS = test system: U251 CNS

## COc1cc(OC)c2c(c1Cl)O[C@]1(C2=O)C(OCc2ccccc2)=CC(=O)C[C@H]1C
786-0 renal
  GI50: 0.944 µM
  TGI: 79.7 µM
A498 renal
  GI50: 0.413 µM
  TGI: 5.58 µM
A549 NSCLC
  GI50: 0.769 µM
  TGI: > 100 µM
ACHN renal
  GI50: 0.785 µM
  TGI: > 100 µM
BT-549 breast
  GI50: 2.28 µM
  TGI: 21.1 µM
CAKI-1 renal
  GI50: 0.656 µM
  TGI: 60.6 µM
CCRF-CEM leukemia
  GI50: 0.532 µM
  TGI: 12.2 µM
COLO 205 colon
  GI50: 0.43 µM
  TGI: 1.69 µM
DU-145 prostate
  GI50: 0.485 µM
  TGI: 5.63 µM
HCC-2998 colon
  GI50: 1.49 µM
  TGI: 7.03 µM
HCT-116 colon
  GI50: 0.46 µM
  TGI: > 100 µM
HCT-15 colon
  GI50: 0.487 µM
  TGI: > 100 µM
HL-60(TB) leukemia
  GI50: 0.531 µM
  TGI: 3.52 µM
HOP-62 NSCLC
  GI50: 1.36 µM
  TGI: 62.2 µM
HS 578T breast
  GI50: 3.17 µM
  TGI: 32.5 µM
HT29 colon
  GI50: 0.534 µM
  TGI: 15.8 µM
IGROV1 ovarian
  GI50: 2.79 µM
  TGI: 79.6 µM
K-562 leukemia
  GI50: 0.538 µM
  TGI: 29.1 µM
KM12 colon
  GI50: 0.596 µM
  TGI: > 100 µM
M14 melanoma
  GI50: 0.612 µM
  TGI: 40.5 µM
MALME-3M melanoma
  GI50: 12 µM
  TGI: 55.8 µM
MCF7 breast
  GI50: 0.395 µM
  TGI: 25.9 µM
MDA-MB-231 breast
  GI50: 1.22 µM
  TGI: 5.02 µM
MDA-MB-435
  GI50: 0.23 µM
  TGI: 0.549 µM
MOLT-4 leukemia
  GI50: 0.826 µM
  TGI: 8.79 µM
NCI-H226 lung
  GI50: 4.18 µM
  TGI: 30.2 µM
NCI-H23 lung
  GI50: 1.02 µM
  TGI: 39.5 µM
NCI-H460 lung
  GI50: 0.401 µM
  TGI: 12.6 µM
NCI-H522 lung
  GI50: 0.694 µM
  TGI: 4.66 µM
NCI/ADR-RES ovarian
  GI50: 0.584 µM
  TGI: 3.72 µM
OVCAR-3 ovarian
  GI50: 0.986 µM
  TGI: 11.4 µM
OVCAR-4 ovarian
  GI50: 7.16 µM
  TGI: 73.3 µM
OVCAR-5 ovarian
  GI50: 1.83 µM
  TGI: > 100 µM
OVCAR-8 ovarian
  GI50: 1.02 µM
  TGI: 29.4 µM
PC-3 prostate
  GI50: 1.6 µM
  TGI: 63.3 µM
RPMI-8226 leukemia
  GI50: 1.13 µM
  TGI: 17 µM
RXF 393 renal
  GI50: 0.899 µM
  TGI: 29.1 µM
SF-268 CNS
  GI50: 1.82 µM
  TGI: 53.8 µM
SF-295 CNS
  GI50: 0.492 µM
  TGI: 5.59 µM
SF-539 CNS
  GI50: 0.884 µM
  TGI: 9.28 µM
SK-MEL-28 melanoma
  GI50: 1.85 µM
  TGI: 24.8 µM
SK-MEL-5 melanoma
  GI50: 1.15 µM
  TGI: 11.8 µM
SK-OV-3 ovarian
  GI50: 1.29 µM
  TGI: 7.75 µM
SN12C renal
  GI50: 0.833 µM
  TGI: 14 µM
SNB-19 CNS
  GI50: 5.68 µM
  TGI: 98.8 µM
SNB-75 CNS
  GI50: 0.936 µM
  TGI: 27.4 µM
SR leukemia
  GI50: 0.331 µM
  TGI: 10.8 µM
SW-620 colon
  GI50: 0.641 µM
  TGI: > 100 µM
T-47D breast
  GI50: 0.792 µM
  TGI: 67.8 µM
TK-10 renal
  GI50: 4.34 µM
  TGI: 63.2 µM
UACC-257 melanoma
  GI50: 1.76 µM
  TGI: 49.2 µM
UACC-62 melanoma
  GI50: 0.72 µM
  TGI: 18.6 µM
UO-31 renal
  GI50: 2.51 µM
  TGI: 61.2 µM

## NC(=O)N/N=C/c1ccccc1O
786-0 renal
  TGI: > 100 µM
A498 renal
  TGI: > 100 µM
ACHN renal
  TGI: > 100 µM
BT-549 breast
  TGI: > 100 µM
CAKI-1 renal
  TGI: > 100 µM
CCRF-CEM leukemia
  TGI: > 100 µM
COLO 205 colon
  TGI: > 100 µM
DU-145 prostate
  TGI: > 100 µM
EKVX NSCLC
  TGI: > 100 µM
HCC-2998 colon
  TGI: > 100 µM
HCT-116 colon
  TGI: > 100 µM
HCT-15 colon
  TGI: > 100 µM
HL-60(TB) leukemia
  TGI: > 100 µM
HOP-62 NSCLC
  TGI: > 100 µM
HOP-92 NSCLC
  TGI: > 100 µM
HS 578T breast
  TGI: > 100 µM
HT29 colon
  TGI: > 100 µM
IGROV1 ovarian
  TGI: > 100 µM
K-562 leukemia
  TGI: > 100 µM
KM12 colon
  TGI: > 100 µM
LOX IMVI melanoma
  TGI: > 100 µM
M14 melanoma
  TGI: > 100 µM
MCF7 breast
  TGI: > 100 µM
MDA-MB-231 breast
  TGI: > 100 µM
MDA-MB-435
  TGI: > 100 µM
MOLT-4 leukemia
  TGI: > 100 µM
NCI-H226 lung
  TGI: > 100 µM
NCI-H23 lung
  TGI: > 100 µM
NCI-H460 lung
  TGI: > 100 µM
NCI/ADR-RES ovarian
  TGI: > 100 µM
OVCAR-4 ovarian
  TGI: > 100 µM
OVCAR-8 ovarian
  TGI: > 100 µM
PC-3 prostate
  TGI: > 100 µM
RPMI-8226 leukemia
  TGI: > 100 µM
RXF 393 renal
  TGI: > 100 µM
SF-268 CNS
  TGI: > 100 µM
SF-295 CNS
  TGI: > 100 µM
SF-539 CNS
  TGI: > 100 µM
SK-MEL-2 melanoma
  TGI: > 100 µM
SK-MEL-28 melanoma
  TGI: > 100 µM
SK-MEL-5 melanoma
  TGI: > 100 µM
SK-OV-3 ovarian
  TGI: > 100 µM
SNB-19 CNS
  TGI: > 100 µM
SNB-75 CNS
  TGI: > 100 µM
SR leukemia
  TGI: > 100 µM
SW-620 colon
  TGI: > 100 µM
T-47D breast
  TGI: > 100 µM
TK-10 renal
  TGI: > 100 µM
U251 CNS
  TGI: > 100 µM
UACC-257 melanoma
  TGI: > 100 µM
UACC-62 melanoma
  TGI: > 100 µM
UO-31 renal
  TGI: > 100 µM
